≈ marks a conversion by molar mass, not a printed value.
Tests used:
Format in all cases: cell-based
[1] = tested on: E. coli MC4100; experiment: Minimal inhibitory concentration, E. coli MC4100; details: Escherichia coli, MC4100, 16 h, 16 hour minimal inhibitory concentration at 37° C.; read-out: MIC (μM) E. coli MC4100 ara+
Description: (§1) General Procedure for Determination of Minimal Inhibitory Concentrations
(§2) Overnight cultures (5 mL) of bacterial strains were grown in LB media or TSA media (for S. aureus) at 37° C. and with shaking at 220 rpm until saturation. The overnight culture was diluted serially 1:100 (50 μL in 5 mL sterile media) and then 1:100 (250 μL in 25 mL sterile media). The 25 mL of diluted culture was then dispensed to a sterile 96 well plate (Corning #3370). 198 μL of culture were dispensed into row A and 100 μL of this culture were dispensed into rows B-H. Aminocoumarin compound (DMSO stock) were added to the first row and then the row was mixed by pipetting. 100 μL of culture from row A were transferred to row B and the serial dilution continued until the final 100 μL from row H were discarded. The plate was incubated without shaking in a 37° C. for 16 hours and then read by visible light spectrophotometer (Molecular Devices) at 600 nm. The minimal inhibitory concentration (MIC) was determined as the lowest concentration of compound concentration that inhibited the growth of bacteria.
(§3) The compounds of the invention were assessed for activities against the pathogens S. aureus RN4220 and MW2, E. cloacae 13047, A. baumannii 19606, K. pneumoniae 700721, E. coli MC4100, 25922. All activities are reported in micromolar (uM) and are 16 hour minimal inhibitory concentrations at 37° C. The assay is detailed in Example 11 and is titled “General Procedure for Determination of Minimal Inhibitory Concentrations.”

[2] = tested on: E. coli 25922; experiment: Minimal inhibitory concentration, E. coli 25922; details: Escherichia coli, 25922, 16 h, 16 hour minimal inhibitory concentration at 37° C.; read-out: MIC (μM) E. coli 25922
Description: as §1, §2, §3

[3] = tested on: E. cloacae 13047; experiment: Minimal inhibitory concentration, E. cloacae 13047; details: Enterobacter cloacae, 13047; 16 hour minimal inhibitory concentration at 37° C.; read-out: MIC (μM) E. cloacae 13047
Description: as §1, §2, §3

[4] = tested on: S. aureus RN4220; experiment: Minimal inhibitory concentration, S. aureus RN4220; details: Staphylococcus aureus, RN4220, 16 h, 16 hour minimal inhibitory concentration at 37° C.; read-out: MIC (μM) S. aureus RN4220
Description: as §1, §2, §3

[5] = tested on: S. aureus MW2; experiment: Minimal inhibitory concentration, S. aureus MW2; details: Staphylococcus aureus, MRSA, 16 h, 16 hour minimal inhibitory concentration at 37° C.; read-out: MIC (μM) S. aureus MW2 (MRSA)
Description: as §1, §2, §3

[6] = tested on: K. pneumoniae 700721; experiment: Minimal inhibitory concentration, K. pneumoniae 700721; details: Klebsiella pneumoniae, 700721; 16 hour minimal inhibitory concentration at 37° C.; read-out: MIC (μM) K. pneumoniae 700721
Description: as §1, §2, §3

[7] = tested on: A. baumannii 19606; experiment: Minimal inhibitory concentration, A. baumannii 19606; details: Acinetobacter baumannii, 19606, 16 h, 16 hour minimal inhibitory concentration at 37° C.; read-out: MIC (μM) A. baumannii 19606
Description: as §1, §2, §3

Row | SMILES | MIC [1] [µM] | MIC [2] [µM] | MIC [3] [µM] | MIC [4] [µM] | MIC [5] [µM] | MIC [6] [µM] | MIC [7] [µM]
1 | CO[C@@H]1[C@@H](OC(N)=O)[C@@H](O)[C@H](Oc2ccc3c(O)c(NC(=O)c4cccc(Oc5ccc(Cl)cc5)c4)c(=O)oc3c2C)OC1(C)C [Compound 243] | 4.8 (≈ 3.14 µg/mL) | 38 (≈ 24.9 µg/mL) | > 100 | 10 (≈ 6.55 µg/mL) | 10 (≈ 6.55 µg/mL) | > 100 | > 50
2 | CO[C@@H]1[C@H]2OP(=O)(c3ccccc3)O[C@H]2[C@H](Oc2ccc3c(O)c(NC(=O)c4ccc(O)c(CC=C(C)C)c4)c(=O)oc3c2C)OC1(C)C (some centres unmarked) [Compound 208] | > 200 | > 200 | > 100 | > 100 | > 100 | > 100 | > 50
3 | CO[C@@H]1[C@@H](OC(N)=O)[C@@H](O)[C@H](Oc2ccc3c(O)c(NC(=O)c4cccc(Oc5cccc(C(F)(F)F)c5)c4)c(=O)oc3c2C)OC1(C)C [Compound 241] | 155 (≈ 107 µg/mL) | 145 (≈ 99.8 µg/mL) | > 100 | 9.08 (≈ 6.25 µg/mL) | 9.08 (≈ 6.25 µg/mL) | > 100 | > 50
4 | CO[C@@H]1[C@@H](OC(N)=O)[C@@H](O)[C@H](Oc2ccc3c(O)c(NC(=O)c4cccc(Oc5ccc(C#N)cc5)c4)c(=O)oc3c2C)OC1(C)C [Compound 242] | 153 (≈ 98.8 µg/mL) | 154 (≈ 99.4 µg/mL) | > 100 | > 100 | 77 (≈ 49.7 µg/mL) | > 100 | > 50
5 | CO[C@@H]1[C@@H](OC(N)=O)[C@@H](O)[C@H](Oc2ccc3c(O)c(NC(=O)c4cccc(-c5ccc(F)c(F)c5)c4)c(=O)oc3c2C)OC1(C)C [Compound 219] | 39 (≈ 25 µg/mL) | 20 (≈ 12.8 µg/mL) | > 100 | 5 (≈ 3.2 µg/mL) | 5 (≈ 3.2 µg/mL) | 78 (≈ 50 µg/mL) | > 50
6 | COc1ccc(C(=O)Nc2c(O)c3ccc(O[C@@H]4OC(C)(C)[C@H](OC)[C@@H](OC(N)=O)[C@H]4O)c(C)c3oc2=O)cc1Oc1ccccc1 [Compound 256] | 10 (≈ 6.51 µg/mL) | 10 (≈ 6.51 µg/mL) | > 100 | 19 (≈ 12.4 µg/mL) | 19 (≈ 12.4 µg/mL) | 19 (≈ 12.4 µg/mL) | > 50
7 | CO[C@@H]1[C@@H](OC(N)=O)[C@@H](O)[C@H](Oc2ccc3c(O)c(NC(=O)c4cccc(-c5ccc(Cl)c(Cl)c5)c4)c(=O)oc3c2C)OC1(C)C [Compound 222] | 37 (≈ 24.9 µg/mL) | 37 (≈ 24.9 µg/mL) | > 100 | 0.46 (≈ 0.31 µg/mL) | 0.23 (≈ 0.155 µg/mL) | > 100 | 9 (≈ 6.06 µg/mL)
8 | CO[C@@H]1[C@@H](OC(N)=O)[C@@H](O)[C@H](Oc2ccc3c(O)c(NC(=O)c4ccc(I)cc4)c(=O)oc3c2C)OC1(C)C [Compound 225] |  | > 200 | > 100 | 38 (≈ 24.9 µg/mL) | 38 (≈ 24.9 µg/mL) | > 100 | > 50
9 | CO[C@@H]1[C@@H](OC(N)=O)[C@@H](O)[C@H](Oc2ccc3c(O)c(NC(=O)c4ccc(CN)cc4)c(=O)oc3c2C)OC1(C)C [Compound 207] | > 200 | > 200 | > 100 | > 100 | > 100 | > 100 | > 50
10 | CO[C@@H]1[C@@H](OC(N)=O)[C@@H](O)[C@H](Oc2ccc3c(O)c(NC(=O)c4ccc(N=[N+]=[N-])cc4)c(=O)oc3c2C)OC1(C)C [Compound 224] |  | > 200 | > 100 | 88 (≈ 50.1 µg/mL) | > 100 | > 100 | > 50

Source: US11713335B2, “Aminocoumarin compounds and methods of their use” (President and Fellows of Harvard College, priority 2018, dated 2023)
